Test results reported in US6593480B2 (Abbott Laboratories, priority 1999, dated 2003).

Target: T1, progesterone receptor (PR) (Homo sapiens, UniProt P06401)
T1 sequence (P06401 1-933): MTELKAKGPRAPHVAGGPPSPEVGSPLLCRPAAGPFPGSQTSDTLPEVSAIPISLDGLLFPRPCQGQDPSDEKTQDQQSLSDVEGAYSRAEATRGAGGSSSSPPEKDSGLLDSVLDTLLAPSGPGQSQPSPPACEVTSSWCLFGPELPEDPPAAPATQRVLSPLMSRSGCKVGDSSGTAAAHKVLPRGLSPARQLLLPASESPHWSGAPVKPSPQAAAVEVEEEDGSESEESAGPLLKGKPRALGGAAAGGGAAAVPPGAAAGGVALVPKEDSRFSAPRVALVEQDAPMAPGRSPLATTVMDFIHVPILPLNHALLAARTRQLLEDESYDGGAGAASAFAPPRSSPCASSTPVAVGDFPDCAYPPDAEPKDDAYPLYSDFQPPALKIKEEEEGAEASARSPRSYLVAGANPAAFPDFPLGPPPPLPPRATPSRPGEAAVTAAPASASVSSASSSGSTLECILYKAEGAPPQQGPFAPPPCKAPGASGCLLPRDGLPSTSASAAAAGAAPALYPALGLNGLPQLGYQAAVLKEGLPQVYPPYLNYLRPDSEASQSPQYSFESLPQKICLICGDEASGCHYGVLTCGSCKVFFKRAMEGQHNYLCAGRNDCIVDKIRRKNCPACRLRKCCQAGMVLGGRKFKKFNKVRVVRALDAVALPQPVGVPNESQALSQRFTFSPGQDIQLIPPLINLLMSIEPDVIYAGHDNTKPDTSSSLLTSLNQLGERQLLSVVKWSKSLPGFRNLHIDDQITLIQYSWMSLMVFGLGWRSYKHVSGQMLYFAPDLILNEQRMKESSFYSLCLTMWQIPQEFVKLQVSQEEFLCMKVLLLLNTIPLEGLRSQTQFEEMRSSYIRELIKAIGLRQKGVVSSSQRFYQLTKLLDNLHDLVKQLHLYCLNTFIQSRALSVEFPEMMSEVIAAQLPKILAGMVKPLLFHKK
Assay: Radioligand binding assay with progesterone receptor cytosol (similar protocol)
From the text: Methods for Radioligand Binding Studies with Human Glucocorticoid and Progesterone Receptor Cytosol
A similar protocol was employed to measure affinity of the compounds of the present invention for progesterone receptor (PR).

| Compound | IC50 [nM] |
| --- | --- |
| C=Cc1c(NS(C)(=O)=O)ccc2c1C(c1cccc(C(F)(F)F)c1)Oc1cccc(OC)c1-2 (stereo not shown) [Example 3, (1-methoxy-6-(3-trifluoromethyl)phenyl-7-vinyl-6H-dibenzo(b,d)pyran-8-yl)methanesulfonamide] | > 10000 |
| Nc1ccc2c(c1Br)C(c1ccccc1)Oc1cccc(OC(F)F)c1-2 (stereo not shown) [Example 4, 8-Amino-7-bromo-1-difluoromethoxy-6-phenyl-6H-dibenzo[b,d]pyran] | 460 |
| COc1cccc2c1-c1ccc(NS(C)(=O)=O)cc1C(c1ccccc1)O2 (stereo not shown) [Example 5, N-(1-methoxy-6-phenyl-6H-dibenzo[b,d]pyran-8-yl)methanesulfonamide] | 3350 |
| COc1cccc2c1-c1ccc(NS(=O)(=O)c3ccccc3F)cc1C(c1ccccc1)O2 (stereo not shown) [Example 18] | > 10000 |
| O=S(=O)(Nc1ccc2c(c1)C(c1ccccc1)Oc1cccc(OC(F)F)c1-2)c1cccs1 (stereo not shown) [Example 26, N-(1-difluoromethoxy-6-phenyl-6H-dibenzo[b,d]pyran-8-yl)-thiophene-2-sulfonamide] | 29 |
| C=CCOc1ccc(C2Oc3cccc(OC)c3-c3ccc(NS(C)(=O)=O)cc32)cc1 (stereo not shown) [Example 32, (1methoxy-6-(4-allyloxy)phenyl-6H-dibenzo(b,d)pyran-8-yl)-methanesulfonamide] | > 10000 |
| COc1cccc2c1-c1ccc(CS(N)(=O)=O)cc1C(c1cccc(Cl)c1)O2 (stereo not shown) [Example 60, (1-methoxy-6-(3-chlorophenyl)-6H-dibenzo(b,d)pyran-8-yl)methanesulfonamide] | 500 |
| C=CCN(C)c1cccc(C2Oc3cccc(OC)c3-c3ccc(NS(C)(=O)=O)cc32)c1 (stereo not shown) [Example 80, N-(6-{3-[allyl(methyl)amino]phenyl}-1-methoxy-6H-benzo[c]chromen-8-yl)methanesulfonamide] | 620 |
| CNc1cccc(C2Oc3cccc(OC)c3-c3ccc(NS(C)(=O)=O)cc32)c1 (stereo not shown) [Example 81, N-{1-methoxy-6-[3-(methylamino)phenyl]-6H-benzo[c]chromen-8-yl}methanesulfonamide] | 9360 |
| COc1cccc2c1-c1ccc(NS(C)(=O)=O)cc1C(c1cccc(Br)c1)O2 (stereo not shown) [Example 82, N-[6-(3-bromophenyl)-1-methoxy-6H-benzo[c]chromen-8-yl]methanesulfonamide] | 300 |
| COc1cccc2c1-c1ccc(NS(C)(=O)=O)cc1C(c1cccc(N(C)S(C)(=O)=O)c1)O2 (stereo not shown) [Example 83, N-(1-methoxy-6-{3-[methyl(methylsulfonyl)amino]phenyl}-6H-benzo[c]chromen-8-yl)methanesulfonamide] | 3630 |
| COc1cccc2c1-c1ccc(NS(C)(=O)=O)cc1C(c1cc(C)cc(C)c1)O2 (stereo not shown) [Example 87, N-[6-(3,5-dimethylphenyl)-1-methoxy-6H-benzo[c]chromen-8-yl]methanesulfonamide] | 210 |
| COc1cccc2c1-c1ccc(NS(C)(=O)=O)cc1C(c1cccc(C#Cc3ccccc3)c1)O2 (stereo not shown) [Example 91, N-{1-methoxy-6-[3-(phenylethynyl)phenyl]-6H-benzo[c]chromen-8-yl}methanesulfonamide] | > 1000 |
| COCC#Cc1ccc(C2Oc3cccc(OC)c3-c3ccc(NS(C)(=O)=O)cc32)s1 (stereo not shown) [Example 92, N-{1-methoxy-6-[5-(3-methoxy-1-propynyl)-2-thienyl]-6H-benzo[c]chromen-8-yl}methanesulfonamide] | 51 |
| COc1cccc2c1-c1ccc(NS(C)(=O)=O)cc1C(c1ccc(C#Cc3ccccc3)s1)O2 (stereo not shown) [Example 93, N-{1-methoxy-6-[5-(phenylethynyl)-2-thienyl]-6H-benzo[c]chromen-8-yl}methanesulfonamide] | > 1000 |
| CS(=O)(=O)Nc1ccc2c(c1)C(c1ccc(Br)s1)Oc1cccc(OC(F)F)c1-2 (stereo not shown) [Example 96, N-{6-(5-bromo-2-thienyl)-1-(difluoromethoxy)-6H-benzo[c]chromen-8-yl}methanesulfonamide] | 120 |
| COc1cccc2c1-c1ccc(NS(C)(=O)=O)cc1C(c1ccsc1)O2 (stereo not shown) [Example 97, N-[1-methoxy-6-(3-thienyl)-6H-benzo[c]chromen-8-yl]methanesulfonamide] | 180 |

| Compound | IC50 [nM] |
| --- | --- |
| CCCCC/C=C/C1Oc2cccc(OC)c2-c2ccc(NS(C)(=O)=O)cc21 (stereo not shown) [Example 98, N-{6-[(1E)-1-heptenyl]-1-methoxy-6H-benzo[c]chromen-8-yl}methanesulfonamide] | 92 |
| COc1cccc2c1-c1ccc(NS(C)(=O)=O)cc1C(c1cccc(/C=C/c3ccccc3)c1)O2 (stereo not shown) [Example 99, N-(1-methoxy-6-{3-[(E)-2-phenylethenyl]phenyl}-6H-benzo[c]chromen-8-yl)methanesulfonamide] | > 1000 |
| COc1cccc2c1-c1ccc(NS(C)(=O)=O)cc1C(c1ccc(-c3ccccc3)s1)O2 (stereo not shown) [Example 100, N-[1-methoxy-6-(5-phenyl-2-thienyl)-6H-benzo[c]chromen-8-yl]methanesulfonamide] | 250 |
| COc1cccc2c1-c1ccc(NS(C)(=O)=O)cc1C(c1ccc(C#CCCCO)s1)O2 (stereo not shown) [Example 102, N-{6-[5-(5-hydroxy-1-pentynyl)-2-thienyl]-1-methoxy-6H-benzo[c]chromen-8-yl}methanesulfonamide] | > 1000 |
| CS(=O)(=O)Nc1ccc2c(c1)C(c1cccc(Br)c1)Oc1cccc(OC(F)F)c1-2 (stereo not shown) [Example 103, N-[6-(3-bromophenyl)-1-(difluoromethoxy)-6H-benzo[c]chromen-8-yl]methanesulfonamide] | 180 |
| CS(=O)(=O)Nc1ccc2c(c1)C(c1cccc(F)c1)Oc1cccc(OC(F)F)c1-2 (stereo not shown) [Example 107, N-[1-(difluoromethoxy)-6-(3-fluorophenyl)-6H-benzo[c]chromen-8-yl]methanesulfonamide] | 60 |
| COc1cccc(C2Oc3cccc(OC(F)F)c3-c3ccc(NS(C)(=O)=O)cc32)c1 (stereo not shown) [Example 108, N-[1-(difluoromethoxy)-6-(3-methoxyphenyl)-6H-benzo[c]chromen-8-yl]methanesulfonamide] | 170 |
| CS(=O)(=O)Nc1ccc2c(c1)C(c1ccc(Br)cc1)Oc1cccc(OC(F)F)c1-2 (stereo not shown) [Example 109, N-[6-(4-bromophenyl)-1-(difluoromethoxy)-6H-benzo[c]chromen-8-yl]methanesulfonamide] | 250 |
| CCOC(=O)c1cccc(C2Oc3cccc(OC(F)F)c3-c3ccc(NS(C)(=O)=O)cc32)c1 (stereo not shown) [Example 114, ethyl 3-{1-(difluoromethoxy)-8-[(methylsulfonyl)amino]-6H-benzo[c]chromen-6-yl}benzoate] | 290 |
| C=CCOc1cccc(C2Oc3cccc(OC(F)F)c3-c3ccc(NS(C)(=O)=O)cc32)c1 (stereo not shown) [Example 116, N-[6-[3-(allyloxy)phenyl]-1-(difluoromethoxy)-6H-benzo[c]chromen-8-yl]methanesulfonamide] | 1050 |
| COCCCc1cccc(C2Oc3cccc(OC(F)F)c3-c3ccc(NS(C)(=O)=O)cc32)c1 (stereo not shown) [Example 117, N-{1-(difluoromethoxy)-6-[3-(3-methoxypropyl)phenyl]-6H-benzo[c]chromen-8-yl}methanesulfonamide] | 430 |
| CCOC(=O)CCc1cccc(C2Oc3cccc(OC(F)F)c3-c3ccc(NS(C)(=O)=O)cc32)c1 (stereo not shown) [Example 118, ethyl 3-(3-{1-(difluoromethoxy)-8-[(methylsulfonyl)amino]-6H-benzo[c]chromen-6-yl}phenyl)propanoate] | 610 |
| CCOC(=O)CCCCCc1cccc(C2Oc3cccc(OC(F)F)c3-c3ccc(NS(C)(=O)=O)cc32)c1 (stereo not shown) [Example 119, ethel 6-(3-{1-(difluoromethoxy)-8-[(methylsulfonyl)amino]-6H-benzo[c]chromen-6-yl}phenyl)hexanoate] | 1960 |
| CCOCCCc1cccc(C2Oc3cccc(OC(F)F)c3-c3ccc(NS(C)(=O)=O)cc32)c1 (stereo not shown) [Example 120, N-{1-(difluoromethoxy)-6-[3-(3-ethoxypropyl)phenyl]-6H-benzo[c]chromen-8-yl}methanesulfonamide] | 500 |
| COc1cccc2c1-c1ccc(NS(C)(=O)=O)cc1C(c1cccc(-c3ccc(C)cc3)c1)O2 (stereo not shown) [Example 123, N-[1-methoxy-6-(4′-methyl[1,1′-biphenyl]-3-yl)-6H-benzo[c]chromen-8-yl]methanesulfonamide] | > 10000 |
| COc1cccc(-c2cccc(C3Oc4cccc(OC)c4-c4ccc(NS(C)(=O)=O)cc43)c2)c1 (stereo not shown) [Example 124, N-[1-methoxy-6-(3′-methoxyl[1,1′-biphenyl]-3-yl)-6H-benzo[c]chromen-8-yl]methanesulfonamide] | > 10000 |
| COc1ccc(-c2cccc(C3Oc4cccc(OC)c4-c4ccc(NS(C)(=O)=O)cc43)c2)cc1 (stereo not shown) [Example 125, N-[1-methoxy-6-(4′-methoxy[1,1′-biphenyl]-3-yl)-6H-benzo[c]chromen-8-yl]methanesulfonamide] | > 10000 |
